Source: patent EP3569594A1, “METHOD FOR THE PREPARATION OF SUBSTITUTED PYRAZINES” (Universität Graz, priority 2018, dated 2019)

Experiments:
FOYE [1] = assay: Reactivity screening of oximes with purified ene-reductase, conversion by GC-FID; format: biochemical, Ferrovum sp. JA12; details: FOYE 100 µg/ml, 10 mM Oxim, 0,5 mM NAD(P)H/H+, Glucose/GDH, Tris-HCl pH 7,5, 30 °C, 24 h
Text: (§1) Die En-Reduktase ist zwar nicht speziell eingeschränkt, ist aber vorzugsweise aus der OYE-Familie, d.h. der Familie der "Old Yellow Enzymes" ausgewählt, da Vertreter dieser Gruppe von Enzymen allesamt gute Ergebnisse geliefert haben. Noch bevorzugter ist die ER aus den folgenden bereits getesteten Enzymen ausgewählt: • OYE1 von Saccharomyces pastorianus, • OYE2 von Saccharomyces cerevisiae, • OYE3 von Saccharomyces cerevisiae, • 12-Oxophytodienoat-Reduktase 3 (OPR3) von Arabidopsis thaliana, • xenobiotischer Reduktase A (XenA) von Pseudomonas putida II-B und • En-Reduktase von Ferrovum sp. JA12 (FOYE).
(§2) Plasmide, die jeweils ein für eine der En-Reduktasen OYE1, OYE2, OYE3, OPR3, XenA und FOYE kodierendes Gen enthielten, wurden in chemisch kompetente E. coli BL21(DE3)-Zellen transformiert. Die sechs Über-Nacht-Kulturen wurden in LB-Medium, das mit 50 µg/ml Kanamycin (für OYE1-3 und FOYE) oder 100 µg/ml Ampicillin (für OPR3 und XenA) ergänzt worden war, bei 30 °C und 120 U/min kultiviert. Hauptkulturen (1 l LB-Medium, 50 µg/ml Kanamycin oder 100 µg/ml Ampicillin) wurden mit je 3 ml der entsprechenden Über-Nacht-Kultur inokuliert und bei 37 °C, 120 U/min geschüttelt, bis die OD600 0,6 bis 0,8 erreichte. Die Proteinproduktion wurde durch Zusatz von Isopropyl-β-D-thiogalactopyranosid (IPTG) (0,2 mM für OYE1-3 und XenA, 1 mM für OPR3 und 0,05 mM für FOYE) induziert und bei 20 °C über Nacht (für OYE1-3 und FOYE) oder bei 37 °C 4 h lang (für XenA und OPR3) geschüttelt. Die Zellen wurden durch Zentrifugation (5000 U/min, 4 °C, 20 min) geerntet, das Pellet wurde mit 100 mM Tris-HCI-Puffer pH 7,5 (25 ml) gewaschen und bei -20 °C gelagert.
(§3) Als Modellreaktion für die Feststellung der Enzymaktivität wurde im Handel erhältlicher 2-Oximinoacetessigsäureethylester (1a) mit den sechs in den Synthesebeispielen 1 bis 6 hergestellten En-Reduktasen (ER) in analytischem Maßstab umgesetzt. Dazu wurden in ein 2-ml-Eppendorf-Röhrchen 100 µg/ml der jeweiligen gereinigten En-Reduktase, 0,5 mM NAD(P)H/H^+, 50 mM Glucose und 1 mg/ml GDH in 100 mM Tris-HCl-Puffer, pH 7,5, gelöst. Die Reaktionen wurden durch Zugabe von 10 mM Oxim (1a) (aus einer 200 mM Stammlösung in DMSO) auf ein Endvolumen von 500 µl gestartet und 24 h lang bei 30 °C, 120 U/min geschüttelt. Danach wurden die Reaktionsgemische jeweils mit 1 ml Chloroform extrahiert, die organische Phase wurde über MgSO4 getrocknet und mittels GC-FID analysiert und der Umsatz anhand der Peakflächenprozentsätze ermittelt. Wie aus nachstehender Tabelle 1 hervorgeht, wurde nach 24 h in allen sechs Fällen praktisch vollständiger Umsatz festgestellt. Tabelle 1: Anfängliches Reaktivitätsscreening mit Modelloxim (1a)
(§4) Zur Ermittlung, welche anderen Derivate der 2-Oximinoacetessigsäure mittels enzymatischer Katalyse durch die sechs in den Synthesebeispielen 1 bis 6 hergestellten En-Reduktasen (1) zu Pyrazindicarbonsäure-Derivaten (2) umsetzbar sein würden, wurden die für die Beispiele 1 bis 6 beschriebene Vorgangsweise unter Verwendung der in den Synthesebeispielen 7 bis 13 hergestellten Oxime (1b) bis (1h) anstelle von (1a) wiederholt. Überraschenderweise wurde in sämtlichen Fällen nach 24 h praktisch vollständiger Umsatz beobachtet, wie aus nachstehender Tabelle 2 hervorgeht. Tabelle 2: Reaktivitätsscreening mit den Oximen (1b) bis (1h)

XenA = assay: as above; format: biochemical, Pseudomonas putida II-B; details: XenA 100 µg/ml, 10 mM Oxim, 0,5 mM NAD(P)H/H+, Glucose/GDH, Tris-HCl pH 7,5, 30 °C, 24 h
Text: as §1, §2, §3, §4

OPR3 = molecular target: T1, OPR3 (Arabidopsis thaliana, UniProt Q9FUP0); assay: as above; format: biochemical; details: OPR3 100 µg/ml, 10 mM Oxim, 0,5 mM NAD(P)H/H+, Glucose/GDH, Tris-HCl pH 7,5, 30 °C, 24 h
T1 construct: made in house; host or cells: E. coli BL21(DE3)
T1 sequence (Q9FUP0 whole entry): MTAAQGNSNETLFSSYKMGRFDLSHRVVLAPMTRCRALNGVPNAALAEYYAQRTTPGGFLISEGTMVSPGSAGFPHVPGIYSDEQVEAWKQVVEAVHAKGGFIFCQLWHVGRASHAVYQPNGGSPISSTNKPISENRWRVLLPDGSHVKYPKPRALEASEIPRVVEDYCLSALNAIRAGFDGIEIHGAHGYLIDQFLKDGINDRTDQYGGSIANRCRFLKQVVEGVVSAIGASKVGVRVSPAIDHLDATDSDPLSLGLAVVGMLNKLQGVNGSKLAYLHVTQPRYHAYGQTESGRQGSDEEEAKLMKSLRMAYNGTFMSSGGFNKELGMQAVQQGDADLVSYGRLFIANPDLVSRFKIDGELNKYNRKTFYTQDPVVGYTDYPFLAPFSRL
Text: as §1, §2, §3, §4

OYE2 = molecular target: T2, OYE2 (Saccharomyces cerevisiae, UniProt Q03558); assay: as above; format: biochemical; details: OYE2 100 µg/ml, 10 mM Oxim, 0,5 mM NAD(P)H/H+, Glucose/GDH, Tris-HCl pH 7,5, 30 °C, 24 h
T2 construct: made in house; host or cells: E. coli BL21(DE3)
T2 sequence (Q03558 whole entry): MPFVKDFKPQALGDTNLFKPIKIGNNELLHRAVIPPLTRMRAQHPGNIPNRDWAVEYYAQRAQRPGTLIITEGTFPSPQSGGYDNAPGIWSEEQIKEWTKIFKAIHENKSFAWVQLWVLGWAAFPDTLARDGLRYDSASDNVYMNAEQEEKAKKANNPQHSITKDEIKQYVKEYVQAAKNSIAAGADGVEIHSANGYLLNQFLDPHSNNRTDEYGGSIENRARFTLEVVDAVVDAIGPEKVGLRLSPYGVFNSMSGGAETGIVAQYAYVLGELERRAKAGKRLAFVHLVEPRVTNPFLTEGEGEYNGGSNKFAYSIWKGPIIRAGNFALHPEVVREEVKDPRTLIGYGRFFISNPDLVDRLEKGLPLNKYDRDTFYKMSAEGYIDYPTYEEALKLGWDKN
Text: as §1, §2, §3, §4

OYE3 = molecular target: T3, OYE3 (Saccharomyces cerevisiae, UniProt P41816); assay: as above; format: biochemical; details: OYE3 100 µg/ml, 10 mM Oxim, 0,5 mM NAD(P)H/H+, Glucose/GDH, Tris-HCl pH 7,5, 30 °C, 24 h
T3 construct: made in house; host or cells: E. coli BL21(DE3)
T3 sequence (P41816 whole entry): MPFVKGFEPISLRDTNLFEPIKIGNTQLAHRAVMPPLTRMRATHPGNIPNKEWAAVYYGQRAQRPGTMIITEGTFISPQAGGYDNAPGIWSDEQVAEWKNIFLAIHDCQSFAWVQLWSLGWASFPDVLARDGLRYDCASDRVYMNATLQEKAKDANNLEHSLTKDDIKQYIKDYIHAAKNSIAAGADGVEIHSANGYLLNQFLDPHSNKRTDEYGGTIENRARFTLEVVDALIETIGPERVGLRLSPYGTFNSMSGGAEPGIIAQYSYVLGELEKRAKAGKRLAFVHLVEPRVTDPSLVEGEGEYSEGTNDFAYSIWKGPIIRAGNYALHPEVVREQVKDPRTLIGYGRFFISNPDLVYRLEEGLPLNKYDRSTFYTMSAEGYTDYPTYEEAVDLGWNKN
Text: as §1, §2, §3, §4

OYE1 = molecular target: T4, OYE1 (Saccharomyces pastorianus, UniProt Q02899); assay: as above; format: biochemical; details: OYE1 100 µg/ml, 10 mM Oxim, 0,5 mM NAD(P)H/H+, Glucose/GDH, Tris-HCl pH 7,5, 30 °C, 24 h
T4 construct: made in house; host or cells: E. coli BL21(DE3)
T4 sequence (Q02899 whole entry): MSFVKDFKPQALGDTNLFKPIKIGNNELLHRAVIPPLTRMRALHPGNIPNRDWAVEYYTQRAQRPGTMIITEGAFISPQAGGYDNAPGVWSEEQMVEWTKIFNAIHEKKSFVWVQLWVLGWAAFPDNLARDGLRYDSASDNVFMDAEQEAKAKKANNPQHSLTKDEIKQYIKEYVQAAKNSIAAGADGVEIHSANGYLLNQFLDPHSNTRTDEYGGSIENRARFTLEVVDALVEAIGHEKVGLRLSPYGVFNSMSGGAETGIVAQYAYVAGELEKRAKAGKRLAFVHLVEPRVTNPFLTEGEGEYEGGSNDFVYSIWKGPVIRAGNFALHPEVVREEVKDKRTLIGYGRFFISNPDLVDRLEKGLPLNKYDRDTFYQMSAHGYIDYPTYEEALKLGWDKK
Text: as §1, §2, §3, §4

FOYE [2] = assay: Photometric activity measurement by consumption of coenzyme NAD(P)H/H+ with diketone oximes; format: biochemical, Ferrovum sp. JA12
Text: Zur Untersuchung, ob die enzymatische Katalyse auch mit 2-Oximino-1,3-diketonen anstelle der 2-Oximinoacetessigsäure-Derivate als Substrate abläuft, d.h. ob das Carbonsäure-Ende des Substratmoleküls für die Reaktion erforderlich ist, wurden die drei nachstehend dargestellten Diketon-Oxime (3a), (3b) und (3c) [drawing 12] auf analoge Weise zu den obigen Synthesebeispielen 7 bis 13 aus den entsprechenden Diketon-Ausgangsprodukten (Acetylaceton, ω-Acetylacetophenon und 1-Isopropylacetylaceton) hergestellt und auf analoge Weise zu den obigen Beispielen 7 und 8 mit FOYE als En-Reduktase umgesetzt.
Während der Reaktionen wurden photometrische Aktivitätsmessungen durchgeführt, bei denen die Enzymaktivität anhand des Verbrauchs des Coenzyms NAD(P)H/H^+ bestimmt wurde. Die Ergebnisse sind in nachstehender Tabelle 3 angeführt. Tabelle 3: Reaktivitätsscreening mit den Diketon-Oximen (3a) bis (3c)

SMILES	Umsatz (FOYE [1]) [%]	Umsatz (XenA) [%]	Umsatz (OPR3) [%]	Umsatz (OYE2) [%]	Umsatz (OYE3) [%]	Umsatz (OYE1) [%]	Aktivität (FOYE [2]) [U/mg]
CCCCCCCOC(=O)C(=NO)C(C)=O [(1f), 2-Oximinoacetessigsäureheptylester]	> 99	> 99	> 99	> 99	> 99	> 99	–
CCOC(=O)C(=NO)C(=O)CC [(1h), 4-Methyl-2-oximinoacetessigsäureethylester]	> 99	> 99	> 99	> 99	> 99	> 99	–
CC(=O)C(=NO)C(=O)c1ccccc1 [Oxim 3b, α-Acetyl-α-oximinoacetophenon]	–	–	–	–	–	–	18
COCCOC(=O)C(=NO)C(C)=O [(1g), 2-Oximinoacetessigsäure-2-methoxyethylester]	> 99	> 99	> 99	> 99	> 99	> 99	–
CCOC(=O)C(=NO)C(C)=O [(1a), 2-Oximinoacetessigsäureethylester, reference compound]	> 99	> 99	> 99	> 99	> 99	> 99	–
CC(=O)C(=NO)C(=O)OCc1ccccc1 [(1e), 2-Oximinoacetessigsäurebenzylester]	> 99	> 99	> 99	> 99	> 99	> 99	–
CC(=O)C(=NO)C(C)=O [Oxim 3a, 3-Oximinoacetylaceton]	–	–	–	–	–	–	6
CC(=O)C(=NO)C(=O)Nc1ccccc1 [(1b), 2-Oximinoacetessigsäure-N-phenylamid]	> 99	> 99	> 99	> 99	> 99	> 99	–
C=CCOC(=O)C(=NO)C(C)=O [(1c), 2-Oximinoacetessigsäureallylester]	> 99	> 99	> 99	> 99	> 99	> 99	–
CCCCOC(=O)C(=NO)C(C)=O [(1d), 2-Oximinoacetessigsäurebutylester]	> 99	> 99	> 99	> 99	> 99	> 99	–
CC(=O)C(=NO)C(=O)CC(C)C [Oxim 3c, 1-Isopropyl-3-oximinoacetylaceton]	–	–	–	–	–	–	23
